# “And” between values parts separate entries of the source, which are not always exact repeats. Equal values may be shown once.
# Key:
# [1] = DPPH radical scavenging activity
# Protocol: The scavenging activity of the stable 2,2-diphenyl-1-picrylhydrazyl (DPPH) free radical by RHE was assessed according to the method reported by Boly et al.[112].
# [2] = biological target: T1, Porcine pancreatic elastase (Sus scrofa, UniProt P00772); assay: Anti-elastase assay (EnzCheck, fluorimetric); format: biochemical
# T1 construct: purchased Molecular Probes
# T1 sequence (P00772 27-266): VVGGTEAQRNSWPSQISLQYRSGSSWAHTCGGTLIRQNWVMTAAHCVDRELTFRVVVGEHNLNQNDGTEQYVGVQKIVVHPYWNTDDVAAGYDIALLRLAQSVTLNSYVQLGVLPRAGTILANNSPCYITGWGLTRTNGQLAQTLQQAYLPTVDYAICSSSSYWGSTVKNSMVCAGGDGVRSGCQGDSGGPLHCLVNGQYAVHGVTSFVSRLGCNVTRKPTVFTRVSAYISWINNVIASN
# Protocol: The elastase inhibitory activity was assessed fluorimetrically using the EnzCheck® elastase assay kit (Molecular Probes, Laiden, Netherlands). A 1 mg/mL stock solution of the substrate (DQ elastin) was prepared in deionized water. Porcine pancreatic elastase stock solution was prepared in deionized water at 100 U/mL and dilutions were made in Tris–HCL buffer. Pre-incubation of 50 µL of different dilutions of the extract (inhibitor) with 100 µL of the enzyme was done for 15 min followed by the addition of the substrate (50 µL). Controls were prepared with buffer instead of extract. Fluorescence intensity was continuously measured for 20 min in a fluorescence microplate reader equipped with standard fluorescein filters (λex 505 nm, λem 515 nm). Subtraction of background fluorescence was done in no-enzyme wells. 1,10-Phenathrolinewas used as a standard elastase inhibitor. The IC50 is the concentration of the extract required to inhibit 50% of elastase activity.
# The percentage of elastase inhibition(%)=(1-S/C)×100 where S is the corrected fluorescence of the extract samples and C is the corrected fluorescence of the control.
# [3] = biological target: collagenase; assay: Anti-collagenase assay (fluorimetric, BODIPY-gelatin); format: biochemical
# Protocol: The evaluation of collagenase inhibitory activity was performed fluorimetrically in a microplate reader. Briefly, the self-quenched BODIPY conjugate of gelatin (Type B) was used as a fluorogenic substrate to monitor the activity of collagenase (Biovision, CA, USA). Collagenase stock solution was prepared in 50 mM Tricine buffer at 0.8 U/mL and the substrate (BODIPY) was dissolved in Tricine buffer to 2 mM. One microliter of different concentrations of the extract (1, 10, 100, and 1000 µg/mL) was incubated with the 5 µL collagenase in buffer and 44 µL Tricine buffer for 15 min before adding the substrate. […] The reaction is initiated by mixing two µL of the substrate with the previous reaction mixture. Negative controls were prepared with the buffer. Fluorescence intensity was monitored (λex 490 nm, λem 520 nm, 515 nm cut-off) in a kinetic mode at 37 °C for 30–60 min.
# The percentage of collagenase inhibition(%)=(1-S/C)×100 where S is the corrected fluorescence of the extract sample and C is the corrected fluorescence of the control.
# [4] = biological target: elastase enzyme; parameters: method as in doi:10.1517/13543776.3.8.1237; conditions: cited from earlier work
# [5] = Cytotoxicity MTT assay; format: cell-based; conditions: human, WI-38 normal lung fibroblast cells, WI38 cell line, read-out: cytotoxic effect IC50
# Protocol: The cytotoxicity of RHE extract was evaluated against human normal lung fibroblasts cell line WI-38 using MTT (3-(4,5-dimethylthiazol-2-yl)2,5-diphenyl tetrazolium bromide) assay[116] as recently described.
compound,measurement,setting,value
Cc1c(C)c2c(c(C)c1O)CCC(C)(C(=O)O)O2 (centres unmarked) [Trolox],"DPPH (IC50, µg/mL)",[1],6.1 ± 0.2 µg/mL and 6.11 ± 0.2 µg/mL
"c1cnc2c(c1)ccc1cccnc12 [1,10-Phenanthroline]",IC50,[2],142 µM
same,IC50 Collagenase,[3],340.8 ± 17.3 µg/mL
CC1=CC(=O)[C@@H]2C[C@H]1C2(C)C [Verbenone],IC50 of elastase enzyme inhibition,[4],picomolar range
Nc1nc2c(ncn2COCCO)c(=O)[nH]1 [acyclovir],IC50,[5],48.6 ± 3.2 µg/mL

# From publication PMC9338973, “Rosmarinus officinalis L. hexane extract: phytochemical analysis, nanoencapsulation, and in silico, in vitro, and in vivo anti-photoaging potential evaluation” (Scientific Reports, 2022)
